According to patent publication US20240327364A1, “THERAPEUTIC TARGETING OF GPR68 TO INDUCE FERROPTOSIS” (University Of Maryland, Baltimore, priority 2023, published 2024):

Experiments:
[1] = system: U87; experiment: GSH-Glo Glutathione Assay; assay type: cell-based, human; conditions: 2 μM OGM2 for 24 hours
Procedure: GSH-Glo™ Glutathione Assay (Promega™) was performed according to manufacturer protocol. Briefly, U87 cells were plated at 10,000 cells per well in a 96-well plate. The following day cells were treated with DMSO control vehicle or 2 μM OGM2 for 24 hours. Medium was removed from wells and 100 μl GSH-Glo™ Reagent was added to each well and incubated on a plate shaker for 30 minutes. One hundred microliters Luciferin Detection Reagent was added to each well and mixed briefly. After 15 minutes incubation, luminescence was detected on Promega™ GloMax luminometer.

[2] = target: T1, ACVR2B (Homo sapiens, UniProt Q13705); experiment: KinomeScan; assay type: binding; conditions: read-out: % Control
T1 construct: purchased DiscoveRx

[3] = target: T2, MST4 (Homo sapiens, UniProt Q9P289); experiment: KinomeScan; assay type: binding; conditions: read-out: % Control
T2 construct: purchased DiscoveRx

[4] = target: T3, INSR (Homo sapiens, UniProt P06213); experiment: KinomeScan; assay type: binding; conditions: read-out: % Control
T3 construct: purchased DiscoveRx (Fremont, CA)

[5] = target: T4, AURKA (Homo sapiens, UniProt O14965); experiment: KinomeScan; assay type: binding; conditions: read-out: % Control
T4 construct: purchased DiscoveRx (Fremont, CA)

[6] = target: T5, EP3 (Homo sapiens, UniProt P43115); experiment: GPCR Profiler; assay type: cell-based
T5 construct: host or cells: Chem-1 cells expressing Gα15

[7] = target: T6, MAP3K4 (Homo sapiens, UniProt Q9Y6R4); experiment: KinomeScan; assay type: binding; conditions: read-out: % Control
T6 construct: purchased DiscoveRx (Fremont, CA)

[8] = target: T7, AKT3 (Homo sapiens, UniProt Q9Y243); experiment: KinomeScan; assay type: binding; conditions: read-out: % Control
T7 construct: purchased DiscoveRx (Fremont, CA)

[9] = target: T8, sst5 (Homo sapiens, UniProt P35346); experiment: GPCR Profiler; assay type: cell-based
T8 construct: host or cells: Chem-1 cells with Gα15

[10] = target: T9, S1P2 (Homo sapiens, UniProt O95136); experiment: GPCR Profiler; assay type: cell-based
T9 construct: host or cells: Chem-1 cells with Gα15

[11] = target: T10, KIT(D816V) (Homo sapiens, UniProt P10721, D816V); experiment: KinomeScan; assay type: binding; conditions: read-out: % Control
T10 construct: purchased DiscoveRx

[12] = target: T11, ABL1(E255K)-phosphorylated (Homo sapiens, UniProt P00519, E255K); experiment: KinomeScan; assay type: binding; conditions: read-out: % Control
T11 construct: purchased DiscoveRx

[13] = target: T12, MEK5 (Homo sapiens, UniProt Q13163); experiment: KinomeScan; assay type: binding; conditions: read-out: % Control
T12 construct: purchased DiscoveRx (Fremont, CA)

[14] = target: T13, M4 (Homo sapiens, UniProt P08173); experiment: GPCR Profiler; assay type: cell-based
T13 construct: host or cells: Chem-1 cells with promiscuous Gα15

[15] = target: T14, JAK1(JH2domain-pseudokinase) (Homo sapiens, UniProt P23458); experiment: KinomeScan; assay type: binding; conditions: read-out: % Control
T14 construct: JAK1(JH2domain-pseudokinase); purchased DiscoveRx (Fremont, CA)

[16] = target: T15, ULK3 (Homo sapiens, UniProt Q6PHR2); experiment: KinomeScan; assay type: binding; conditions: read-out: % Control
T15 construct: purchased DiscoveRx

[17] = target: T16, PFTK1 (Homo sapiens, UniProt O94921); experiment: KinomeScan; assay type: binding; conditions: read-out: % Control
T16 construct: purchased DiscoveRx (Fremont, CA)

[18] = target: T17, MC4 (Homo sapiens, UniProt P32245); experiment: GPCR Profiler; assay type: cell-based
T17 construct: host or cells: Chem-1 cells with promiscuous Gα15

[19] = target: T18, MYO3B (Homo sapiens, UniProt Q8WXR4); experiment: KinomeScan; assay type: binding; conditions: read-out: % Control
T18 construct: purchased DiscoveRx

[20] = target: T19, ABL1(Q252H)-nonphosphorylated (Homo sapiens, UniProt P00519, Q252H); experiment: KinomeScan; assay type: binding; conditions: read-out: % Control
T19 construct: purchased DiscoveRx

[21] = target: T20, PRKD3 (Homo sapiens, UniProt O94806); experiment: KinomeScan; assay type: binding; conditions: read-out: % Control
T20 construct: purchased DiscoveRx (Fremont, CA)

[22] = target: T21, mGlu2 (Homo sapiens, UniProt Q14416); experiment: GPCR Profiler; assay type: cell-based
T21 construct: host or cells: Chem-1 cells expressing Gα15

[23] = target: T22, SRMS (Homo sapiens, UniProt Q9H3Y6); experiment: KinomeScan; assay type: binding; conditions: read-out: % Control
T22 construct: purchased DiscoveRx (Fremont, CA)

[24] = target: T23, MYLK2 (Homo sapiens, UniProt Q9H1R3); experiment: KinomeScan; assay type: binding; conditions: read-out: % Control
T23 construct: purchased DiscoveRx

[25] = target: T24, AURKB (Homo sapiens, UniProt Q96GD4); experiment: KinomeScan; assay type: binding; conditions: read-out: % Control
T24 construct: purchased DiscoveRx (Fremont, CA)

[26] = target: T25, PFCDPK1(P. falciparum) (Plasmodium falciparum, UniProt P62344); experiment: KinomeScan; assay type: binding; conditions: read-out: % Control
T25 construct: purchased DiscoveRx (Fremont, CA)

[27] = target: T26, C3aR (Homo sapiens, UniProt Q16581); experiment: GPCR Profiler; assay type: cell-based
T26 construct: host or cells: Chem-1 cells with promiscuous Gα15

[28] = target: T27, AT1 (Homo sapiens, UniProt P30556); experiment: GPCR Profiler; assay type: cell-based
T27 construct: host or cells: Chem-1 cells with promiscuous Gα15

[29] = target: T28, CDK4-cyclinD3 (Homo sapiens, UniProt P11802); experiment: KinomeScan; assay type: binding; conditions: read-out: % Control
T28 construct: purchased DiscoveRx (KinomeScan service)

[30] = target: T29, FLT3 (Homo sapiens, UniProt P36888); experiment: KinomeScan; assay type: binding; conditions: read-out: % Control
T29 construct: purchased DiscoveRx (Fremont, CA)

[31] = target: T30, MCHR1 (Homo sapiens, UniProt Q99705); experiment: GPCR Profiler; assay type: cell-based; conditions: 12.5 uM
T30 construct: host or cells: Chem-1 cells with promiscuous Gα15

[32] = target: T31, PHKG2 (Homo sapiens, UniProt P15735); experiment: KinomeScan; assay type: binding; conditions: read-out: % Control
T31 construct: purchased DiscoveRx (Fremont, CA)

[33] = target: T32, DMPK2 (Homo sapiens, UniProt Q6DT37); experiment: KinomeScan; assay type: binding; conditions: read-out: % Control
T32 construct: purchased DiscoveRx (Fremont, CA), KinomeScan service

[34] = target: T33, GRK1 (Homo sapiens, UniProt Q15835); experiment: KinomeScan; assay type: binding; conditions: read-out: % Control
T33 construct: purchased DiscoveRx (Fremont, CA)

T26 sequence (Q16581 whole entry, species assumed): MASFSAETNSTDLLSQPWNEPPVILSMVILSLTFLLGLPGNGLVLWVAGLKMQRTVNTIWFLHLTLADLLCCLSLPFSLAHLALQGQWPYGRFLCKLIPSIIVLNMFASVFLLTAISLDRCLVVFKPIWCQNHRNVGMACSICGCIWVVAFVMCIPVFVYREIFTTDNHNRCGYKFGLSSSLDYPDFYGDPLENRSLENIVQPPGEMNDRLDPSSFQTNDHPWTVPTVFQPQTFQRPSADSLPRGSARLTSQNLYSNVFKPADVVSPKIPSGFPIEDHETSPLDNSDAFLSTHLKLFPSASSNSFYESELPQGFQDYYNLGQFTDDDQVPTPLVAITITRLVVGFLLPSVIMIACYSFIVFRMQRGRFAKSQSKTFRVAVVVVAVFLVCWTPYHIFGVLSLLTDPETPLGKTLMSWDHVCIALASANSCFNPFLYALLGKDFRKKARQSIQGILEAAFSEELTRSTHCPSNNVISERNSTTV
T17 sequence (P32245 whole entry): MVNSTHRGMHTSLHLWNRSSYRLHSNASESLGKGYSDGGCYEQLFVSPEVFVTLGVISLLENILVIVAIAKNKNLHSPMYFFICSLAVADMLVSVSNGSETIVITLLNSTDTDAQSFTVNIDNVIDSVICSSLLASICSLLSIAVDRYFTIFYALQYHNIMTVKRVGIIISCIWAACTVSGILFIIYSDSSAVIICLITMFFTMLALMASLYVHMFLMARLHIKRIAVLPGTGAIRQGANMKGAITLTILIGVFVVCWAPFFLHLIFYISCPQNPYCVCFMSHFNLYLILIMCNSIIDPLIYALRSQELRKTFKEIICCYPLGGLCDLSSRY
T8 sequence (P35346 whole entry, species assumed): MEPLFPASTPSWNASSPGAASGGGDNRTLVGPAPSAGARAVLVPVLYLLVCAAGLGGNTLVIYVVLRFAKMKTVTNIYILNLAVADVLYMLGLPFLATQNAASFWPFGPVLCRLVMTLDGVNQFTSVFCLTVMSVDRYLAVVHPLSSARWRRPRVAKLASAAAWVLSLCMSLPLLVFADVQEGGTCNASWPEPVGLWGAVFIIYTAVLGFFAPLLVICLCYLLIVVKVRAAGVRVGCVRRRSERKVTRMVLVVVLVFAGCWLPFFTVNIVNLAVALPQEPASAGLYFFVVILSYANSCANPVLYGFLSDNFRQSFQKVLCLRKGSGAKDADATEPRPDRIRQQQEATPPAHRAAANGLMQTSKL
T13 sequence (P08173 whole entry): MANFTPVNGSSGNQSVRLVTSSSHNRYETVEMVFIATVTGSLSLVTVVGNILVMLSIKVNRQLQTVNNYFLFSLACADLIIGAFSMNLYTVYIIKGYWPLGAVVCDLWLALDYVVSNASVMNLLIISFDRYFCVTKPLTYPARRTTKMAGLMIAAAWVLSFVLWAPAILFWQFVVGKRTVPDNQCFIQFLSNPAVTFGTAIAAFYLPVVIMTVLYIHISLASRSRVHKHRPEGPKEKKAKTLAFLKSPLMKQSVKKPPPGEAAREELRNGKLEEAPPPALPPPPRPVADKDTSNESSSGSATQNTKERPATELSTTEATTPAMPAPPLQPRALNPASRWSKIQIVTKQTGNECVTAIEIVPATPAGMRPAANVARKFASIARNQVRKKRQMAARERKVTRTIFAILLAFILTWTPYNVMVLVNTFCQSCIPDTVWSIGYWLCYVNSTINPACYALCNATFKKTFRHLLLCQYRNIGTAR
T9 sequence (O95136 whole entry, species assumed): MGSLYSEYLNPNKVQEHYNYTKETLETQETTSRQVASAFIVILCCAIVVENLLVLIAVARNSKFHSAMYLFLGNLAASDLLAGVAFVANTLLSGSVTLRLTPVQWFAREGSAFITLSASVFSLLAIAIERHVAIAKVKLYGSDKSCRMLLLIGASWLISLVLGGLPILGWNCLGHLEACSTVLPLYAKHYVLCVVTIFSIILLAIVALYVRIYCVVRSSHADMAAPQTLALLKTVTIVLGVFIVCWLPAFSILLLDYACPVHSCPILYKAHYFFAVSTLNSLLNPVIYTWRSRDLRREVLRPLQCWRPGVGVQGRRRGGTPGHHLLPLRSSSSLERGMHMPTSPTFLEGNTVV
T27 sequence (P30556 whole entry): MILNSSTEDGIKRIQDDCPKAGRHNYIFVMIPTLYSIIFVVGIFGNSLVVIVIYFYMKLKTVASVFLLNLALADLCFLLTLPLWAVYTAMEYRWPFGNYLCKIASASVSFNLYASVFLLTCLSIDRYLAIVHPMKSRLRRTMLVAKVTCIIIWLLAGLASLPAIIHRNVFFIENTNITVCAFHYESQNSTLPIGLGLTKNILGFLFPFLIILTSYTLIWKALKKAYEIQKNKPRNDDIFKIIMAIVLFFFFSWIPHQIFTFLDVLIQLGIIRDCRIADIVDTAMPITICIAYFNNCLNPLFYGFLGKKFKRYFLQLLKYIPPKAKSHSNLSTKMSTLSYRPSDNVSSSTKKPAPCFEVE
T21 sequence (Q14416 19-872): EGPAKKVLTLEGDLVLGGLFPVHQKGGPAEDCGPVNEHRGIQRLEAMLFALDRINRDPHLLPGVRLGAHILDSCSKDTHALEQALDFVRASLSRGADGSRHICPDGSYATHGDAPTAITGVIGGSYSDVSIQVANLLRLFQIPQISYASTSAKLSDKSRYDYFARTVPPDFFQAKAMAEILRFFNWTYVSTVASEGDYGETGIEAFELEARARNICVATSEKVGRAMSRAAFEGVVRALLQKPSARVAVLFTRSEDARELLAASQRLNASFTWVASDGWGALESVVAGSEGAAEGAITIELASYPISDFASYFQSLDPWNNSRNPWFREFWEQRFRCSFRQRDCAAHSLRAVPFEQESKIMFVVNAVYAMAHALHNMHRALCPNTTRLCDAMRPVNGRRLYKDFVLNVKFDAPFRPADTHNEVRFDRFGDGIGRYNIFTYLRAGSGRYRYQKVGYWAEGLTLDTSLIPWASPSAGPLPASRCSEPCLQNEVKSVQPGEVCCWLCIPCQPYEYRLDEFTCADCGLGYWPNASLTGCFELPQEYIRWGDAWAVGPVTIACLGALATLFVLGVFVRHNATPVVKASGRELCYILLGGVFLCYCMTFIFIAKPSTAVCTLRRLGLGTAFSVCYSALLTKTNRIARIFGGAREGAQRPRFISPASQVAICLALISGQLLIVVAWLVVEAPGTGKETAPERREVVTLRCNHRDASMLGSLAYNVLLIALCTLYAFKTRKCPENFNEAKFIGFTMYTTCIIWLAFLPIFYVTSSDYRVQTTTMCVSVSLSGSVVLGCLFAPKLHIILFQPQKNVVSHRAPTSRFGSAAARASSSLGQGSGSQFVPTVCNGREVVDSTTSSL
T5 sequence (P43115 whole entry): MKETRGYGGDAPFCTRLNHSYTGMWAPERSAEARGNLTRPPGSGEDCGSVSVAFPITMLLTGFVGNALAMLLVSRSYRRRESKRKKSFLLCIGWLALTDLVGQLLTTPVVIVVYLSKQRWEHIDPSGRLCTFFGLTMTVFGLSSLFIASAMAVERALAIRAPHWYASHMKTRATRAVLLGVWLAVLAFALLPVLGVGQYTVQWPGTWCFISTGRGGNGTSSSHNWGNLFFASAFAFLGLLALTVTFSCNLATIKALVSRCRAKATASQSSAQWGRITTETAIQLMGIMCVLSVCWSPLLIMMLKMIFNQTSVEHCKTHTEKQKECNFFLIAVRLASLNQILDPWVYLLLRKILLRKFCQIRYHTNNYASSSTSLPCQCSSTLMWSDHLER
T12 sequence (Q13163 whole entry): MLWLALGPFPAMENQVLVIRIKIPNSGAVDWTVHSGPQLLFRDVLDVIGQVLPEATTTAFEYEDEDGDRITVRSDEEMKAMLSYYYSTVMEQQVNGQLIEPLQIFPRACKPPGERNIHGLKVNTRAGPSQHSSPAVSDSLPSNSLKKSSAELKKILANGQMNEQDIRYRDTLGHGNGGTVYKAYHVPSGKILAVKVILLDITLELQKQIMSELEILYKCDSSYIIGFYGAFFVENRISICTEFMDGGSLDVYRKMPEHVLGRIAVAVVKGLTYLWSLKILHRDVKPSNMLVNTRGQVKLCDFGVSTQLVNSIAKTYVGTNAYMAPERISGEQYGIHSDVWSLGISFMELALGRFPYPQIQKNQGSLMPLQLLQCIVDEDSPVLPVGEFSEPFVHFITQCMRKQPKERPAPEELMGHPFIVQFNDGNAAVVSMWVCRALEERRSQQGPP
T30 sequence (Q99705 whole entry, species assumed): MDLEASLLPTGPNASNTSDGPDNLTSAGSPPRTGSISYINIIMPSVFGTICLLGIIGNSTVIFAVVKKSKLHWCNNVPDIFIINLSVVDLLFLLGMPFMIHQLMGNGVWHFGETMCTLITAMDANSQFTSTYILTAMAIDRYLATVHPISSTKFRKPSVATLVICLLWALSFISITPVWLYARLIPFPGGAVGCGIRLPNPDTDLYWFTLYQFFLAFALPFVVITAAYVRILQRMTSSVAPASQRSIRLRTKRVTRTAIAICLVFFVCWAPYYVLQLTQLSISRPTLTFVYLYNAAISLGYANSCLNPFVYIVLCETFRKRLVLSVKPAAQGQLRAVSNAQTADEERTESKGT
T7 sequence (Q9Y243 whole entry): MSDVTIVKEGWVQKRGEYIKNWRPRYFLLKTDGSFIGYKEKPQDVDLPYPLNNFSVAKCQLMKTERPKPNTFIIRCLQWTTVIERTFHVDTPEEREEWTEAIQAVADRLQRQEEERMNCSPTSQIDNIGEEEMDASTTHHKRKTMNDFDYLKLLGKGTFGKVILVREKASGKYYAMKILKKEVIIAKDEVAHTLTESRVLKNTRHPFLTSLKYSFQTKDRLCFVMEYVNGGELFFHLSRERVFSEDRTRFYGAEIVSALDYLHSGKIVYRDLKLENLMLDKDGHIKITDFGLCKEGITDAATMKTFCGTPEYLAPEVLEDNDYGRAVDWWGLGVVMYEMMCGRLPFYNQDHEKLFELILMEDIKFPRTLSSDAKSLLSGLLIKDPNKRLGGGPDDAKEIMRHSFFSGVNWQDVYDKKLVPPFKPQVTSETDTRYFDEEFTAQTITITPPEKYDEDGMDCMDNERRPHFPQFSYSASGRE

Q: With `CCc1ccc2c(c1)C1(NN=C(c3ccccc3)S1)C(=O)N2` (stereo not drawn) [OGM2] as the molecule, how does the glutathione levels [1] read?
A: dramatically reduced glutathione levels

Q: Which remaining binding at 10 µM [2] does the source give for `CCc1ccc2c(c1)C1(NN=C(c3cccc4ccccc34)S1)C(=O)N2` (stereo not drawn) [OGM1, 5-ethyl-5′-naphthalen-1-ylspiro[1H-indole-3,2′-3H-1,3,4-thiadiazole]-2-one] here?
A: 100%

Q: And the remaining binding at 10 µM [3]?
A: 81%

Q: What about the remaining binding at 10 µM [4] of the same molecule?
A: 80%

Q: And the remaining binding at 10 µM [5]?
A: 100%

Q: And the Antagonism ([6]; 10 uM)?
A: 6.3

Q: And the Agonism ([6]; 12.5 uM)?
A: 0.4

Q: And the remaining binding at 10 µM [7]?
A: 100%

Q: What about the remaining binding at 10 µM [8] of the same molecule?
A: 100%

Q: And the Antagonism ([9]; 10 uM)?
A: −4

Q: What about the Agonism ([9]; 12.5 uM) of the same molecule?
A: −0.3

Q: What about the Antagonism ([10]; 10 uM) of the same molecule?
A: −3.3

Q: And the Agonism ([10]; 12.5 uM)?
A: 0.5

Q: What about the remaining binding at 10 µM [11] of the same molecule?
A: 100%

Q: What about the remaining binding at 10 µM [12] of the same molecule?
A: 77%

Q: And the remaining binding at 10 µM [13]?
A: 92%

Q: What about the Antagonism ([14]; 10 uM) of the same molecule?
A: −2.8

Q: And the Agonism ([14]; 12.5 uM)?
A: −0.6

Q: What about the remaining binding at 10 µM [15] of the same molecule?
A: 100%

Q: And the remaining binding at 10 µM [16]?
A: 100%

Q: And the remaining binding at 10 µM [17]?
A: 92%

Q: And the Antagonism ([18]; 10 uM)?
A: −5.4

Q: What about the Agonism ([18]; 12.5 uM) of the same molecule?
A: −0.3

Q: And the remaining binding at 10 µM [19]?
A: 100%

Q: And the remaining binding at 10 µM [20]?
A: 84%

Q: And the remaining binding at 10 µM [21]?
A: 100%

Q: What about the Antagonism ([22]; 10 uM) of the same molecule?
A: −1.2

Q: What about the Agonism ([22]; 12.5 uM) of the same molecule?
A: −0.4

Q: What about the remaining binding at 10 µM [23] of the same molecule?
A: 80%

Q: And the remaining binding at 10 µM [24]?
A: 100%

Q: And the remaining binding at 10 µM [25]?
A: 86%

Q: And the remaining binding at 10 µM [26]?
A: 95%

Q: What about the Antagonism ([27]; 10 uM) of the same molecule?
A: 5.4

Q: What about the Agonism ([27]; 12.5 uM) of the same molecule?
A: 0.2

Q: What about the Antagonism ([28]; 10 uM) of the same molecule?
A: −0.7

Q: And the Agonism ([28]; 12.5 uM)?
A: −0.4

Q: What about the remaining binding at 10 µM [29] of the same molecule?
A: 76%

Q: What about the remaining binding at 10 µM [30] of the same molecule?
A: 79%

Q: And the Agonism [31]?
A: −0.4

Q: What about the remaining binding at 10 µM [32] of the same molecule?
A: 71%

Q: What about the remaining binding at 10 µM [33] of the same molecule?
A: 93%

Q: And the remaining binding at 10 µM [34]?
A: 100%
